Experimental data: PubChem BioAssay (NCI)
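GI50 marks 50% less growth. TGI marks complete inhibition of growth.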

What was measured:
Assay in all cases: NCI-60 cell line screen, 384-well format
HL-60(TB) leukemia = system: HL-60(TB) leukemia
OVCAR-5 ovarian = system: OVCAR-5 ovarian
COLO 205 colon = system: COLO 205 colon
OVCAR-4 ovarian = system: OVCAR-4 ovarian
MALME-3M melanoma = system: MALME-3M melanoma
MDA-MB-468 breast = system: MDA-MB-468 breast
NCI-H522 lung = system: NCI-H522 lung
LOX IMVI melanoma = system: LOX IMVI melanoma
NCI-H322M lung = system: NCI-H322M lung
BT-549 breast = system: BT-549 breast
MDA-MB-231 breast = system: MDA-MB-231 breast
UO-31 renal = system: UO-31 renal
A498 renal = system: A498 renal
SR leukemia = system: SR leukemia
SK-MEL-5 melanoma = system: SK-MEL-5 melanoma
M14 melanoma = system: M14 melanoma
SW-620 colon = system: SW-620 colon
SK-MEL-2 melanoma = system: SK-MEL-2 melanoma
HOP-62 NSCLC = system: HOP-62 NSCLC
KM12 colon = system: KM12 colon
NCI-H23 lung = system: NCI-H23 lung
SF-268 CNS = system: SF-268 CNS
HS 578T breast = system: HS 578T breast
TK-10 renal = system: TK-10 renal
ACHN renal = system: ACHN renal
T-47D breast = system: T-47D breast
HCC-2998 colon = system: HCC-2998 colon
MDA-MB-435 melanoma = system: MDA-MB-435 melanoma
MOLT-4 leukemia = system: MOLT-4 leukemia
SK-MEL-28 melanoma = system: SK-MEL-28 melanoma
MCF7 breast = system: MCF7 breast
NCI/ADR-RES ovarian = system: NCI/ADR-RES ovarian
HCT-15 colon = system: HCT-15 colon
UACC-257 melanoma = system: UACC-257 melanoma
RXF 393 renal = system: RXF 393 renal
PC-3 prostate = system: PC-3 prostate
SNB-19 CNS = system: SNB-19 CNS
DU-145 prostate = system: DU-145 prostate
HT29 colon = system: HT29 colon
UACC-62 melanoma = system: UACC-62 melanoma
SNB-75 CNS = system: SNB-75 CNS
SF-295 CNS = system: SF-295 CNS
A549 NSCLC = system: A549 NSCLC
NCI-H226 lung = system: NCI-H226 lung
HCT-116 colon = system: HCT-116 colon
CCRF-CEM leukemia = system: CCRF-CEM leukemia
786-0 renal = system: 786-0 renal

## N#CCC1(n2cc(-c3ncnc4[nH]ccc34)cn2)CN(C2CCN(C(=O)c3ccnc(C(F)(F)F)c3F)CC2)C1
HL-60(TB) leukemia
  GI50: > 62 µM
  TGI: 97.7 µM
OVCAR-5 ovarian
  GI50: > 100 µM
  TGI: > 100 µM
COLO 205 colon
  GI50: 28.5 µM
  TGI: 70.6 µM
OVCAR-4 ovarian
  GI50: > 100 µM
  TGI: > 100 µM
MALME-3M melanoma
  GI50: > 75.4 µM
  TGI: > 100 µM
MDA-MB-468 breast
  GI50: 17.6 µM
  TGI: 50.5 µM
NCI-H522 lung
  GI50: 18.4 µM
  TGI: 39.2 µM
LOX IMVI melanoma
  GI50: > 100 µM
  TGI: > 100 µM
NCI-H322M lung
  GI50: > 100 µM
  TGI: > 100 µM
BT-549 breast
  GI50: 50.4 µM
  TGI: > 100 µM
MDA-MB-231 breast
  GI50: 45.8 µM
  TGI: > 100 µM
UO-31 renal
  GI50: 72.5 µM
  TGI: > 100 µM
A498 renal
  GI50: > 100 µM
  TGI: > 100 µM
SR leukemia
  GI50: 23.9 µM
  TGI: 39.4 µM
SK-MEL-5 melanoma
  GI50: > 41.9 µM
  TGI: > 70.7 µM
M14 melanoma
  GI50: > 88.6 µM
  TGI: > 100 µM
SW-620 colon
  GI50: > 61.1 µM
  TGI: > 100 µM
SK-MEL-2 melanoma
  GI50: > 100 µM
  TGI: > 100 µM
HOP-62 NSCLC
  GI50: > 68.2 µM
  TGI: > 100 µM
KM12 colon
  GI50: 42.3 µM
  TGI: > 100 µM
NCI-H23 lung
  GI50: 31.7 µM
  TGI: > 100 µM
SF-268 CNS
  GI50: > 39.8 µM
  TGI: > 69.3 µM
HS 578T breast
  GI50: 30.9 µM
  TGI: 92.9 µM
TK-10 renal
  GI50: > 100 µM
  TGI: > 100 µM
ACHN renal
  GI50: > 64.7 µM
  TGI: > 100 µM
T-47D breast
  GI50: 49.6 µM
  TGI: > 100 µM
HCC-2998 colon
  GI50: > 100 µM
  TGI: > 100 µM
MDA-MB-435 melanoma
  GI50: > 100 µM
  TGI: > 100 µM
MOLT-4 leukemia
  GI50: 16.8 µM
  TGI: 35.4 µM
SK-MEL-28 melanoma
  GI50: > 100 µM
  TGI: > 100 µM
MCF7 breast
  GI50: > 71.8 µM
  TGI: > 100 µM
NCI/ADR-RES ovarian
  GI50: > 100 µM
  TGI: > 100 µM
HCT-15 colon
  GI50: > 78.9 µM
  TGI: > 100 µM
UACC-257 melanoma
  GI50: > 81.8 µM
  TGI: > 100 µM
RXF 393 renal
  GI50: 58.3 µM
  TGI: > 100 µM
PC-3 prostate
  GI50: > 100 µM
  TGI: > 100 µM
SNB-19 CNS
  GI50: > 100 µM
  TGI: > 100 µM
DU-145 prostate
  GI50: 97.1 µM
  TGI: > 100 µM
HT29 colon
  GI50: > 73 µM
  TGI: > 100 µM
UACC-62 melanoma
  GI50: > 61.3 µM
  TGI: > 100 µM
SNB-75 CNS
  GI50: > 58 µM
  TGI: > 100 µM
SF-295 CNS
  GI50: 72.9 µM
  TGI: > 100 µM
A549 NSCLC
  GI50: > 61.3 µM
  TGI: > 100 µM
NCI-H226 lung
  GI50: 33.5 µM
  TGI: > 82.9 µM
HCT-116 colon
  GI50: > 79.5 µM
  TGI: > 100 µM
CCRF-CEM leukemia
  GI50: 20.6 µM
  TGI: 44.9 µM
786-0 renal
  GI50: > 96.4 µM
  TGI: > 100 µM
